According to patent US8466195B2, “Methods and compositions for treating complications of diabetes and vascular diseases using flavones” (Salk Institute for Biological Studies, priority 2009, dated 2013):
pEC50: −log10 of the molar value.

Tests used:
Type in all cases: cell-based
[1] = system: HT22 cells; test: Oxidative glutamate toxicity (MTT cell viability); conditions: Mus musculus, HT-22; 5 mM glutamate, 24 hours, MTT; read-out: EC50 oxid. glut. tox.
Protocol: Cell viability was determined by a modified version of 3-(4,5-dimethylthiazol-2-yl)-2,5-diphenyl tetrazolium bromide (MTT) assay based on the standard procedure (Hansen M B et al. J. Immunol. Methods 119:203-210, 1989). Briefly, cells were seeded onto 96-well microtiter plates at a density of 5×10^3 cells per well. The next day, the medium was replaced with DMEM supplemented with 7.5% DFCS and the cells were treated with the different fisetin derivatives alone or in the presence of 5 mM glutamate. Twenty four hours later, the medium in each well was aspirated and replaced with fresh medium containing 2.5 μg/ml MTT. After 4 hours of incubation at 37° C., cells were solubilized with 100 μA of a solution containing 50% dimethylformamide and 20% SDS (pH 4.7). The absorbance at 570 nm was measured on the following day with a microplate reader (Molecular Devices). Results obtained from the MTT assay correlated directly with the extent of cell death as confirmed visually. Controls employing wells without cells were used to determine the effects of the agents upon the assay chemistry.
As shown in panel (A) of FIG. 3, HT22 cells were untreated (ct) or treated with 10 μM fisetin (fis) in the absence of presence of 5 mM glutamate for 24 hr and GSH was measured enzymatically and normalized to protein. As shown in panel (B) of FIG. 3, HT22 cells in 96-well plates were treated with 5 mM glutamate and the indicated concentrations of fisetin. MTT reduction was measured after 24 hr.

[2] = system: cells treated with 20 μM iodoacetic acid (IAA); test: In vitro ischemia (iodoacetic acid, MTT cell viability); conditions: 20 μM IAA 2 h, MTT 20 h later
Protocol: Briefly, cells were seeded onto 96-well microtiter plates at a density of 5×10^3 cells per well. The next day, the medium was replaced with DMEM supplemented with 7.5% DFCS and the cells were treated with 20 μM iodoacetic acid (IAA) alone or in the presence of the different fisetin derivatives. After 2 h the medium in each well was aspirated and replaced with fresh medium without IAA but containing the fisetin derivatives. 20 h later, the medium in each well was aspirated and replaced with fresh medium containing 2.5 μg/ml MTT. After 4 h of incubation at 37° C., cells were solubilized with 100 μl of a solution containing 50% dimethylformamide and 20% SDS (pH 4.7). The absorbance at 570 nm was measured on the following day with a microplate reader (Molecular Devices). Results obtained from the MTT assay correlated directly with the extent of cell death as confirmed visually. Controls included compound alone to test for toxicity and compound with no cells to test for interference with the assay chemistry.

[3] = system: HT-22 nerve cells; test: HT-22 nerve cells exposed to glutamate: MG adducts and viability
Protocol: HT-22 nerve cells were exposed to 0.5 mM glutamate and Glo-1 expression monitored at 8 and 24 hrs. In panel (B) of FIG. 2, Fisetin is shown to prevent both cell death and protein glycation. HT-22 cells were exposed to 5 mM glutamate in the presence or absence of 2 μM fisetin. MG adducts were determined by Western blotting 8 hrs after glutamate exposure and viability after 24 hrs. Actin is at the bottom of the blot. In panel (C) of FIG. 2, the Glo-1 inhibitor s-p-bromobenzylglutathione […] is shown to potentiate cell death. HT-22 cells were exposed to 1 mM glutamate plus or minus 10 or 20 μM BBGD.

SMILES | pEC50 [1] | pEC50 [2] | toxicity in the absence of glutamate ([3]; 20 μM BBGD, no glutamate) | cell death in the presence of glutamate ([3]; 1 mM glutamate plus 10 or 20 μM BBGD)
Cc1cc2oc(-c3ccc(O)c(O)c3)c(O)c(=O)c2cc1C | > 5.00 | > 6.00 |  | 
CCOc1ccc(-c2cc(=O)c3cc(C)c(C)cc3o2)cc1OCC |  | < 6.00 |  | 
O=c1c(O)c(-c2ccc(O)c(O)c2)oc2cc(O)ccc12 [drawing 10] | > 5.00 | < 6.00 |  | 
CCOc1ccc(-c2oc3cc(C)c(C)cc3c(=O)c2O)cc1OCC | > 5.00 | > 6.00 |  | 
N[C@@H](CCC(=O)N[C@@H](CSCc1ccc(Br)cc1)C(=O)NCC(=O)O)C(=O)O [BBGD, s-p-bromobenzylglutathione, reference compound] |  |  | only mildly toxic | greatly potentiates cell death
CCOc1ccc(-c2oc3cc(OC)c(OC)cc3c(=O)c2O)cc1OCC | > 5.00 | < 6.00 |  | 
COc1cc2oc(-c3ccc(O)c(O)c3)c(O)c(=O)c2cc1OC | > 5.00 | < 6.00 |  | 
O=c1cc(-c2ccc(O)c(O)c2)oc2cc(O)c(O)cc12 | < 5.00 | < 6.00 |  | 
COc1cccc(-c2oc3cc(OC)c(OC)cc3c(=O)c2O)c1 | > 5.00 | 6.00 |  | 
O=c1c(O)c(-c2ccc(O)c(O)c2)oc2cc(O)c(O)cc12 | > 5.00 | < 6.00 |  | 
Cc1cc2oc(-c3ccc(O)c(O)c3)cc(=O)c2cc1C | > 5.00 | > 6.00 |  | 
COc1cc2oc(-c3ccc(O)c(O)c3)cc(=O)c2cc1OC | > 5.00 | > 6.00 |  | 
